Patent US11613546B2, “Substituted pyridotriazine compounds and uses thereof” (Gilead Sciences, Inc., priority 2021, dated 2023)
Read-outs that look alike come from different tables or passages of the source.

Assays:
Assay type in all cases: cell-based
HIV-1 (IIIB) = assay: Antiviral assay in MT-4 cells; conditions: Human immunodeficiency virus 1, IIIB, MT4, 120 h, HIV-1 IIIB infected MT-4 cells, 5 days, Cell Titer Glo; read-out: MT4 EC50
Method: Antiviral Assay in MT-4 Cells
(§1) Compounds were tested in a high-throughput 384-well assay format for their ability to inhibit the replication of HIV-1 (IIIB) in MT-4 cells. Compounds were serially diluted (1:3) in DMSO on 384-well polypropylene plates and further diluted 200-fold into complete RPMI media (10% FBS, 1% P/S) using the Biotek Micro Flow and Labcyte ECHO acoustic dispenser. Each plate contained up to 8 test compounds, with negative (No Drug Control) and 5 μM AZT positive controls. MT-4 cells were pre-infected with 10 μL of either RPMI (mock-infected) or a fresh 1:250 dilution of HIV-1 IIIB concentrated virus stock. Infected and uninfected MT-4 cells were further diluted in complete RPMI media and added to each plate using a Micro Flow dispenser. After 5 days incubation in a humidified and temperature controlled incubator (37° C.), Cell Titer Glo (Promega) was added to the assay plates and chemiluminescence read using an Envision plate-reader. EC50 values were defined as the compound concentration that causes a 50% decrease in luminescence signal, and were calculated using a sigmoidal dose-response model to generate curve fits.

pLai RLuc reporter virus = assay: HIV MT-4 serum shift antiviral reporter assay; conditions: Human immunodeficiency virus 1, 72 h
Method: To quantify the amount of protein binding to human serum, compounds were serially diluted (1:3) in DMSO and acoustically transferred onto 384-well assay plates via a Labcyte ECHO robot. Each plate contained up to 8 test compounds, including negative and positive controls, (DMSO, 5 μM AZT respectively). Assay plates were prepared in duplicate, and tested in either CCM (cell culture media) or HS/CCM (human serum/cell culture media). MT-4 cells were first pre-infected with pLai RLuc reporter virus for 2 h at 37° C., then further diluted in either CCM (RPMI media, 10% FBS, 1% P/S) or HS/CCM (RPMI media, 10% FBS, 50% HS, 1% P/S), and subsequently added to each plate using a Biotek Micro Flow dispenser. After a 72-h incubation in a humidified and temperature controlled incubator (37° C.), Renilla Glo (Promega) was added to all assay plates and chemiluminescence read using an Envision plate-reader. EC50 values were defined as the compound concentration that causes a 50% decrease in luminescence signal, and were calculated using a sigmoidal dose-response model to generate curve fits. To determine the amount of protein binding, EC50 fold shifts (or EC50 shifts) were calculated by dividing EC50 (HS/CCM)/EC50 (CCM).

[1] = Cytotoxicity assay in MT-4 cells; conditions: human
Method: as §1, with “fits. Cytotoxicity Assay in MT-4 Cells Assays were performed as above except uninfected MT-4 cells were added to each well containing test compound. In addition, 10 μM puromycin was added to the last column of each assay plate to assess a base level of cytotoxicity.” for “fits.”

[2] = read-out: RLUC 50% HS (nM), HS/CCM: 50% human serum, 72 h, Renilla Glo
[3] = read-out: RLUC CCM (nM), cell culture media (RPMI, 10% FBS), 72 h, Renilla Glo
[4] = uninfected MT-4 cells, 5 days, Cell Titer Glo, read-out: CC50

Structure (SMILES)	EC50 (HIV-1 (IIIB))	EC50 (pLai RLuc reporter virus; [2])	EC50 (pLai RLuc reporter virus; [3])	CC50 at 5 days [1, 4]	CC50 at 5 days ([1]; CC50 (nM))
C[C@H]1C=CCN2CN1C(=O)c1c(O)c(=O)c(C(=O)NCc3c(F)cc(F)cc3F)cn12 [Example C5, (10S)-6-hydroxy-10-methyl-5,8-dioxo-N-[(2,4,6-trifluorophenyl)methyl]-1,2,9-triazatricyclo[7.4.1.02,7]tetradeca-3,6,11-triene-4-carboxamide]	3.4 nM	40.4 nM	0.42 nM	14200 nM	
O=C(NCc1c(F)cc(F)cc1F)c1cn2c(c(O)c1=O)C(=O)N1CCCCN2C1Cc1ccccc1 (stereo not drawn) [Example C6, 13-benzyl-8-hydroxy-7,9-dioxo-N-(2,4,6-trifluorobenzyl)-2,3,4,5,7,9-hexahydro-1,6-methanopyrido[1,2-b][1,2,5]triazonine-10-carboxamide]	7.5 nM	23.1 nM	3.5 nM	9880 nM	
C[C@H]1C=CC2(COC(C)(C)C2)N2CN1C(=O)c1c(O)c(=O)c(C(=O)NCc3c(F)cc(F)cc3F)cn12 (stereo partly drawn) [Example C9, (1′S,5′S)-8′-hydroxy-5,5,5′-trimethyl-7′,9′-dioxo-N-(2,4,6-trifluorobenzyl)-4,5,7′,9′-tetrahydro-2H,5′H-spiro[furan-3,2′-[1,6]methanopyrido[1,2-b][1,2,5]triazonine]-10′-carboxamide]					25300 nM
C[C@@H]1C/C=C\[C@H](C)N2CN1n1cc(C(=O)NCc3c(F)cc(F)cc3F)c(=O)c(O)c1C2=O [Example C12, (1R,2S,6R,Z)-9-hydroxy-2,6-dimethyl-8,10-dioxo-N-(2,4,6-trifluorobenzyl)-3,6,8,10-tetrahydro-2H-1,7-methanopyrido[1,2-b][1,2,5]triazecine-11-carboxamide]	3.4 nM	273 nM	0.77 nM	10800 nM	
C[C@@H]1CCCCN2CN1n1cc(C(=O)NCc3ccc(F)cc3F)c(=O)c(O)c1C2=O [Example C13, (1S,2R)—N-(2,4-difluorobenzyl)-9-hydroxy-2-methyl-8,10-dioxo-3,4,5,6,8,10-hexahydro-2H-1,7-methanopyrido[1,2-b][1,2,5]triazecine-11-carboxamide]	1.3 nM	4.07 nM	0.25 nM	8870 nM	
C[C@@H]1C/C=C\CN2CN1n1cc(C(=O)NCc3c(F)cc(F)cc3F)c(=O)c(O)c1C2=O [Example C16, (1S,2R,Z)-9-hydroxy-2-methyl-8,10-dioxo-N-(2,4,6-trifluorobenzyl)-3,6,8,10-tetrahydro-2H-1,7-methanopyrido[1,2-b][1,2,5]triazecine-11-carboxamide]	1.1 nM	19.4 nM	0.32 nM	11400 nM	
C[C@@H]1CCCCN2CN1n1cc(C(=O)NCc3c(F)cc(F)cc3F)c(=O)c(O)c1C2=O [Example C17, (1S,2R)-9-hydroxy-2-methyl-8,10-dioxo-N-(2,4,6-trifluorobenzyl)-3,4,5,6,8,10-hexahydro-2H-1,7-methanopyrido[1,2-b][1,2,5]triazecine-11-carboxamide]	0.91 nM	7.12 nM	0.16 nM	11200 nM	
C[C@@H]1CCC[C@@H](C)N2CN1C(=O)c1c(O)c(=O)c(C(=O)NCc3c(F)cc(F)cc3F)cn12 [Example C22, (1S,2R,6R)-9-hydroxy-2,6-dimethyl-8,10-dioxo-N-(2,4,6-trifluorobenzyl)-3,4,5,6,8,10-hexahydro-2H-1,7-methanopyrido[1,2-b][1,2,5]triazecine-11-carboxamide]	2.2 nM			16300 nM	
CO[C@@H]1[C@H](OC)[C@@H](C)N2CN(C(=O)c3c(O)c(=O)c(C(=O)NCc4c(F)cc(F)cc4F)cn32)[C@H]1C [Example C32, (1S,2R,3R,4S,5S)-8-hydroxy-3,4-dimethoxy-2,5-dimethyl-7,9-dioxo-N-(2,4,6-trifluorobenzyl)-2,3,4,5,7,9-hexahydro-1,6-methanopyrido[1,2-b][1,2,5]triazonine-10-carboxamide]	2.4 nM	1.04 nM	0.55 nM	28000 nM	
CO[C@@H]1C[C@@H](C)N2CN(C(=O)c3c(O)c(=O)c(C(=O)NCc4c(F)cc(F)cc4F)cn32)[C@H]1C [Example C33, (1S,2R,4R,5S)-8-hydroxy-4-methoxy-2,5-dimethyl-7,9-dioxo-N-(2,4,6-trifluorobenzyl)-2,3,4,5,7,9-hexahydro-1,6-methanopyrido[1,2-b][1,2,5]triazonine-10-carboxamide]	4 nM	4.3 nM	1.8 nM	32900 nM	
C[C@@H]1C[C@H](F)[C@H](C)N2CN1n1cc(C(=O)NCc3c(F)cc(F)cc3F)c(=O)c(O)c1C2=O [Example C34, (1S,2R,4S,5S)-4-fluoro-8-hydroxy-2,5-dimethyl-7,9-dioxo-N-(2,4,6-trifluorobenzyl)-2,3,4,5,7,9-hexahydro-1,6-methanopyrido[1,2-b][1,2,5]triazonine-10-carboxamide]	1.4 nM	938 nM	0.59 nM	8360 nM	
CO[C@H]1C[C@@H](C)N2CN(C[C@H]1OC)C(=O)c1c(O)c(=O)c(C(=O)NCc3ccc(F)cc3F)cn12 [Example C39, (1S,2R,4S,5R)—N-(2,4-difluorobenzyl)-9-hydroxy-4,5-dimethoxy-2-methyl-8,10-dioxo-3,4,5,6,8,10-hexahydro-2H-1,7-methanopyrido[1,2-b][1,2,5]triazecine-11-carboxamide]	3.5 nM	4.7 nM	0.93 nM	20300 nM	
C[C@H]1CC[C@@H](CF)N2CN1C(=O)c1c(O)c(=O)c(C(=O)NCc3ccc(F)cc3F)cn12 [Example C45, (1S,2S,5S)—N-(2,4-difluorobenzyl)-2-(fluoromethyl)-8-hydroxy-5-methyl-7,9-dioxo-2,3,4,5,7,9-hexahydro-1,6-methanopyrido[1,2-b][1,2,5]triazonine-10-carboxamide]	1.8 nM			11000 nM	
C[C@H]1CCC(C)(C)N2CN1C(=O)c1c(O)c(=O)c(C(=O)NCc3c(F)cc(F)cc3F)cn12 [Example C87, (1S,5S)-8-hydroxy-2,2,5-trimethyl-7,9-dioxo-N-(2,4,6-trifluorobenzyl)-2,3,4,5,7,9-hexahydro-1,6-methanopyrido[1,2-b][1,2,5]triazonine-10-carboxamide]		198 nM	0.68 nM		
CC1N2C(=O)c3c(O)c(=O)c(C(=O)NCc4c(F)cc(F)cc4F)cn3N1[C@H](C)C=C[C@@H]2C (stereo partly drawn) [Example C100, (1S,2R,5S)-8-hydroxy-2,5,13-trimethyl-7,9-dioxo-N-(2,4,6-trifluorobenzyl)-2,5,7,9-tetrahydro-1,6-methanopyrido[1,2-b][1,2,5]triazonine-10-carboxamide]	0.8 nM			16200 nM	
CCC1N2C(=O)c3c(O)c(=O)c(C(=O)NCc4c(F)cc(F)cc4F)cn3N1[C@H](C)C=C[C@@H]2C (stereo partly drawn) [Example C101, (1S,2R,5S)-13-ethyl-8-hydroxy-2,5-dimethyl-7,9-dioxo-N-(2,4,6-trifluorobenzyl)-2,5,7,9-tetrahydro-1,6-methanopyrido[1,2-b][1,2,5]triazonine-10-carboxamide]	19.7 nM			33500 nM	
